Results on seven molecules are retold here after patent US8859776B2, “Substituted piperidines that increase p53 activity and the uses thereof” (Merck Sharp & Dohme Corp., priority 2009, dated 2014).

Sequence of HDM2 protein (Q00987 whole entry): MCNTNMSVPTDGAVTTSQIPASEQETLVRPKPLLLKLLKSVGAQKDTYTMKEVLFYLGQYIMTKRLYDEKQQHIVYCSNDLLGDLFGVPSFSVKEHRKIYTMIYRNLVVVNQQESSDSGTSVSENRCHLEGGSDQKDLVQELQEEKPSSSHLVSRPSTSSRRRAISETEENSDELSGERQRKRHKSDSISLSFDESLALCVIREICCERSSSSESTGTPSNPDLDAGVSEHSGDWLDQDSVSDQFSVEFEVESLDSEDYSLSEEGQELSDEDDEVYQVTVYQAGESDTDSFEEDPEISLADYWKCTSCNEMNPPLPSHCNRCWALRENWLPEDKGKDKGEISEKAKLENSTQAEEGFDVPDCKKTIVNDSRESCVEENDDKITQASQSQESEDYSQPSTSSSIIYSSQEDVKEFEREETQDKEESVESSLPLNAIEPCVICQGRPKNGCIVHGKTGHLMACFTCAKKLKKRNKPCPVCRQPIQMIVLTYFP

In this assay the target is HDM2 protein (Homo sapiens, UniProt Q00987). Nature of the assay: fluorescence polarization assay for HDM2 inhibitory activity. The assay is classed as binding. The settings on record: read-out: FP (IC 50 uM). From the text:
The inventive compounds can readily be evaluated to determine activity at the HDM2 protein by known methods such as the fluorescence polarization screening assay that measures the inhibitory concentration that achieves 50% of maximal activity (FP IC50) and the dissociation constant for inhibitor binding (FP Ki). [Zhang et al., J. Analytical Biochemistry 331: 138-146 (2004)].
As for `CCC[C@H]1N(C(=O)c2cnccc2C(F)(F)F)CCC[C@@]1(Oc1csc(C(F)(F)F)c1)C(=O)N1CCC(c2ccccc2OCCCC(=O)NS(=O)(=O)C2CC2)CC1` [Compound A2], the IC50 stood at 0.009 µM.
In the case of `CCC[C@H]1N(C(=O)c2cnccc2C(F)(F)F)CCC[C@@]1(Oc1csc(C(F)(F)F)c1)C(=O)N1CCC(C#N)(c2ccccc2OCCCCC(=O)O)CC1` [Compound A4] it was 0.014 µM; in that of `CCC[C@H]1N(C(=O)c2cnccc2C(F)(F)F)CCC[C@@]1(Oc1csc(C(F)(F)F)c1)C(=O)N1CCC(c2nn[nH]n2)(c2ccccc2OC)CC1` [Compound A54], 0.019 µM.
As for `CCC[C@H]1N(C(=O)c2cnccc2C(F)(F)F)CCC[C@@]1(Oc1ccc(C(F)(F)F)cc1)C(=O)N1CCC(C#N)(c2ccccc2CCC(=O)O)CC1` [Compound A83], the figure is 0.013 µM; as for `CCC[C@H]1N(C(=O)c2ncccc2C(F)(F)F)CCC[C@@]1(Oc1csc(C(F)(F)F)c1)C(=O)N1CCC(O)(c2ccccc2OCCCP(=O)(O)O)CC1` [Compound A89, 3-(2-(4-hydroxy-1-((2R,3S)-2-propyl-1-(3-(trifluoromethyl)picolinoyl)-3-(5-(trifluoromethyl)thiophen-3-yloxy)piperidine-3-carbonyl)piperidin-4-yl)phenoxy)propylphosphonic acid], 0.011 µM.
For the molecule `CCC[C@H]1N(C(=O)c2cnccc2C(F)(F)F)CCC[C@@]1(Oc1csc(C(F)(F)F)c1)C(=O)N1CCC(c2ccccc2CCc2nnn[nH]2)CC1` [Compound A133, (4-(2-(2-(1H-tetrazol-5-yl)ethyl)phenyl)piperidin-1-yl)((2R,3S)-2-propyl-1-(4-(trifluoromethyl)nicotinoyl)-3-(5-(trifluoromethyl)thiophen-3-yloxy)piperidin-3-yl)methanone], the IC50 was 0.011 µM.
In the case of `CCC[C@H]1N(C(=O)c2ncccc2C(F)(F)F)CCC[C@@]1(Oc1csc(C(F)(F)F)c1)C(=O)N1CCC(O)(c2ccccc2O[C@@H]2CC[C@](C)(C(=O)NS(C)(=O)=O)C2)CC1` [Compound A145], the IC50 came out at 0.008 µM.
